Data on twelve molecules can be found in patent US12297203B2, “Pyrrolopyrimidine ITK inhibitors” (ACLARIS THERAPEUTICS, INC., priority 2018, dated 2025).

For experiment [1], the system named is ITK phosphorylation of its substrate, PLCγ1, at Y783. Kind of experiment: ITK target modulation assay (PLCγ1 Y783 phosphorylation, anti-CD3 stimulated Jurkat T cells). The experiment is classed as cell-based. The conditions noted are these: Homo sapiens, Jurkat, anti-CD3 Dynabeads stimulation, read-out: PLC-γ Inh. IC50. As for the experimental part:
Target modulation was based upon the ability of a compound to inhibit ITK phosphorylation of its substrate, PLCγ1, at Y783. Human Jurkat T cells (ATCC TIB-152) were plated in V-bottom 96 well plates at 400,000 cells/well in 80 μL medium (RPMI1640 with 10% heat inactivated serum and 55 μM 2-mercaptoethanol and supplemented with glutamine/penicillin/streptomycin). Compounds were added as 10 μL of 10× working stock solutions in medium with 1% DMSO (or medium with 1% DMSO for controls) and placed in a 37° C. incubator with gentle shaking for 1 hour. Stimulation was carried out using anti-CD3 Dynabeads (Invitrogen catalog #1151D) to activate the T cell receptor and mimic antigen presenting cells. Beads were washed and resuspended in medium at 1.84×10^8 beads/ml. Beads were added rapidly to all compound containing and stimulation only wells at 10 μL/well (bead:cell=2:1) with gentle mixing of the bead source between each addition. Wells designated ‘unstimulated’ received 10 μL of media only. The plate was immediately sealed with a plate seal and cells pelleted at 400× g for 4 minutes. Media was removed using a multichannel aspirator, 25 μL of cold hypotonic lysis buffer (VWR M334-100 ml) plus 1×HALT Protease Inhibitor Cocktail (ThermoFisher #78437), 1× Phosphatase Inhibitor Cocktail 2 (Sigma Aldrich #P5726), 1× Phosphatase Inhibitor Cocktail 3 (Sigma Aldrich #P0044) and 2 mM PMSF was added per well. Cells were incubated on ice for 30 minutes to swell the cells then lysed by pipetting 20 times using a multichannel pipet. The plates were then resealed and centrifuged for 5 minutes at 400× g to pellet the cellular debris. Two μL of the soluble component of each sample was spotted onto nitrocellulose and allowed to dry for 30 minutes. Nitrocellulose was wet in 1× Tris Buffer Saline (20 mM Tris pH7.5, 150 mM NaCl) then blocked in LiCOR Odyssey Blocking Buffer (TBS) (LiCOR #927-50000) for 1 hour at room temperature with rocking. Following blocking, nitrocellulose was incubated in LiCOR Odyssey Blocking Buffer (TBS) plus 0.2% Tween20 plus anti-phospho-PLCγ1 (Y783) antibody (CST #2821S) at 1:1000 and anti-PLCγ1 (Abcam #41433) at 1:5000 with gentle rocking overnight at 4° C. Nitrocellulose was then washed four times for 5 minutes each with TBS plus 0.1% Tween20 (TBST) then incubated in LiCOR Odyssey Blocking Buffer (TBS) plus 0.2% Tween20 plus secondary antibodies IRDye 800CW (LiCOR 926-32211) and IRDye 680RD (LiCOR 926-68070) both at 1:15,000 with gentle rocking at room temperature in the dark for 1 hour. Nitrocellulose was then washed four times for 5 minutes each with TBST at room temperature in the dark. A final rinse with TBS was done prior to imaging and quantifying using the LiCOR Odyssey Imager and software respectively.

The target in another experiment is ITK (Homo sapiens (Human), UniProt Q08881). As to the kind of experiment: ITK inhibitor binding potency (LanthaScreen competitive binding assay). The conditions noted are these: read-out: ITK Inh. IC50. An excerpt: The ability of candidate compounds to interact with ITK is quantitated by a competitive binding assay using the LanthaScreen technology developed by Life Technologies. This assay is based on the binding of a proprietary, Alexa Fluor® 647-labeled, ATP-competitive kinase inhibitor (kinase tracer-236) to the ITK expression construct in the presence of a Europium-conjugated antibody, resulting in a FRET (fluorescence resonance energy transfer) signal. Displacement of the kinase tracer by compound results in a lower emission ratio upon excitation of the Europium chelate. Candidate compounds are designed as potential irreversible inhibitors of ITK, capable of ligating to an active site cysteine residue resulting in time dependent covalent binding. The time dependent nature of irreversible inhibition is investigated by performing the binding assay with and without a pre-incubation of compound and ITK. […] The inhibitory potency of candidate compounds is measured in 20 mM HEPES pH 7.5, 10 mM MgCl2, 0.01% BSA, 0.0005% Tween-20, and 2% DMSO in the presence of 10 nM ITK, 2 nM Eu-anti-GST antibody, and 50 nM kinase tracer-236 using a 384-well plate format. Background signal is defined in the absence of ITK and uninhibited signal is defined in the presence of vehicle (2% DMSO) alone. Compounds were evaluated in an 11 point dose-response ranging from 20 uM to 0.34 nM. The binding assays are performed under two preincubation conditions to evaluate time dependence of inhibition. For the pre-incubation assay, ITK and Eu-anti-GST antibody are pre-incubated with compound or vehicle for two hours prior to the addition of kinase tracer. The non-preincubated assay is run under conditions where ITK and Eu-anti-GST antibody are added to a mixture of compound and kinase tracer. IC50 values of compounds are determined using a 4 parameter logistical fit of emission ratio as a function of the concentration of compound.

For another experiment, the target named is JAK3 (Homo sapiens (Human), UniProt P52333). As to the kind of experiment: JAK3 enzyme activity assay (Caliper mobility shift). Type of experiment: biochemical. The conditions noted are these: ATP at Km level; read-out: JAK3 Inh. IC50. An excerpt:
The ability of candidate compounds to interact with JAK3 is quantitated by a mobility shift assay using an LC3000 instrument developed by Caliper Life Sciences. This assay is based on mobility shift electrophoresis, in which fluorescently labelled product and fluorescently labelled substrate peaks are separated and detected independently. JAK3 product/substrate separation is obtained using the following instrument settings: Pressure=−1.4 psi, Downstream voltage=−2550V and Upstream voltage=−800V. The inhibitory potency of candidate compounds of JAK3 is measured in 20 mM HEPES pH 7.5, 10 mM MgCl2, 0.01% BSA, 0.0005% Tween-20, and 2% DMSO in the presence of 2.5 nM JAK3 (Life Technologies Catalog #PV3855), […] (Anaspec Catalog #AS-64106) and […] (Km level) using a 384-well plate format. Background signal is defined in the absence of enzyme and uninhibited signal is defined in the presence of vehicle (2% DMSO) alone. Compounds were evaluated in an 11 point dose-response ranging from […] to 0.34 nM. IC50 values of compounds are determined using a 4 parameter logistical fit of emission ratio as a function of the concentration of compound.

Experiment [2] relates to JAK1/3 phosphorylation of its substrate, STAT5, at Y694. As to the kind of experiment: JAK1/3 target modulation assay (IL-2 stimulated STAT5 Y694 phosphorylation in PBMC). The experiment is classed as cell-based. The conditions noted are these: Homo sapiens, PBMC, Primary human peripheral blood mononuclear cells, IL-2 25 ng/mL; read-out: IL2-STAT5 Inh. IC50. As for the experimental part:
Target modulation was based upon the ability of a compound to inhibit JAK1/3 phosphorylation of its substrate, STAT5, at Y694. Primary human peripheral blood mononuclear cells were plated in V-bottom 96 well plates at 200,000 cells/well in 120 μL medium (RPMI-1640 with 10% fetal bovine serum, 10 mM HEPES buffer, 12.2 mM 2-mercaptoethanol, and supplemented with glutamine/penicillin/streptomycin). Compounds were added as 15 μL of 10× working stock solutions in medium with 1% DMSO (or medium with 1% DMSO for controls) and placed in a 37° C. incubator with gentle shaking for 1 hour. Stimulation was carried out using recombinant human IL-2 (R&D Systems #202-IL-050) to activate JAK1/3. IL-2 stock solution was diluted in media to 250 ng/mL and was added rapidly to all compound containing and stimulation only wells at 15 μL/well (final concentration=25 ng/mL). Wells designated ‘unstimulated’ received 15 μL of media only. The plate was placed back in a 37° C. incubator with gentle shaking for 5 minutes. After stimulation, the plates were immediately sealed with a plate seal, and cells pelleted at 400× g for 5 minutes. Media was removed using a multichannel aspirator, and 75 μL of cold Tris lysis buffer (MSD #R60TX-3) plus 1× Protease Inhibitor Solution (MSD #R70AA-1), 1× Phosphatase Inhibitor I (MSD #R70AA-1), and 1× Phosphatase Inhibitor II (MSD #R70AA-1) was added per well. Cells were incubated at 4° C. with gentle shaking for at least 30 minutes to allow for complete lysis. The plates were removed from 4° C., and 25 μL of lysate from each well was added to the corresponding well on the MSD plate. Samples were analyzed by either an MSD multiplex kit for Phospho-STAT5a,b/Total-STAT5a,b (MSD #K15163D) or an MSD single-plex kit for Phospho-STAT5a,b (MSD #K150IGD). The protocols for the respective kits were followed, and the plates were read on the MSD SECTOR S 600.

Bounds are passed on as bounds.

Sequence of ITK (Q08881 whole entry): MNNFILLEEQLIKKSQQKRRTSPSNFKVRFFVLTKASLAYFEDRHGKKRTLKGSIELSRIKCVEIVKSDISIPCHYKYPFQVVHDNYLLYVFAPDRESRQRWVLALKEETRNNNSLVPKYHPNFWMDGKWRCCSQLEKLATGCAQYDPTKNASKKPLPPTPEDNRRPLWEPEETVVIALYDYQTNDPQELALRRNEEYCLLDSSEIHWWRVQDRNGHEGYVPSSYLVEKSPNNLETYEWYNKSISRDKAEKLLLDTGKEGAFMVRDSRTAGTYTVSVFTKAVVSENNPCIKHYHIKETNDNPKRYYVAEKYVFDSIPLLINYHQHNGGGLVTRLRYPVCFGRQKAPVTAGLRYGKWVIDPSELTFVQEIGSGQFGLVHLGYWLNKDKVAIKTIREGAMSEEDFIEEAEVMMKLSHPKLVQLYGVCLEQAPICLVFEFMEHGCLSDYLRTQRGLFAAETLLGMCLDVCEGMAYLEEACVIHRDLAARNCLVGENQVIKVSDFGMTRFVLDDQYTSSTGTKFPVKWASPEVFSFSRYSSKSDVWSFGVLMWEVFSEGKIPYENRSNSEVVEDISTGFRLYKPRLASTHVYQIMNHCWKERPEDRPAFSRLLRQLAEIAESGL
Sequence of JAK3 (P52333 781-1124): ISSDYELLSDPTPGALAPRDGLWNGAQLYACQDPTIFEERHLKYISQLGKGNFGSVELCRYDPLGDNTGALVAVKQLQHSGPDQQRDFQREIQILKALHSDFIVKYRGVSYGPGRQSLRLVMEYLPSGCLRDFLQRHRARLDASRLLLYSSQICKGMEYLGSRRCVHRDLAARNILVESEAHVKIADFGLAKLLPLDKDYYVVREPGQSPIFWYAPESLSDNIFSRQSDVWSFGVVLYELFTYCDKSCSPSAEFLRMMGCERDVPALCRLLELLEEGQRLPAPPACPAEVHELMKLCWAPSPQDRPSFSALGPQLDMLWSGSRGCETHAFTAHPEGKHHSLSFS

What is called IC50 is the concentration needed to halve the response being measured. As for `C=CC(=O)N1C[C@H](Nc2ncnc3[nH]cc(C4(C)CC4(F)F)c23)CC[C@@H]1C` (stereo partly drawn) [Example 50, 1-((2S,5R)-5-((5-(2,2-difluoro-1-methylcyclopropyl)-7H-pyrrolo[2,3-d]pyrimidin-4-yl)amino)-2-methylpiperidin-1-yl)prop-2-en-1-one], the 50% inhibitory concentration (IC50) in experiment [1] was at most 100 nM; on ITK, at most 10 nM; at JAK3, at most 10 nM; in experiment [2], 100 to 1000 nM.

Turning to `C=CC(=O)N1CCC[C@@H](Nc2ncnc3[nH]cc(CC4CC4)c23)C1` [Example 18, (R)-1-(3-((5-(cyclopropylmethyl)-7H-pyrrolo[2,3-d]pyrimidin-4-yl)amino)piperidin-1-yl)prop-2-en-1-one], the half-inhibitory concentration (IC50) in experiment [1] is at most 100 nM; on ITK it was at most 10 nM; on JAK3 it was at most 10 nM; in experiment [2], 100 to 1000 nM.

`C=CC(=O)N1C[C@H](Nc2ncnc3[nH]cc([C@H]4CC4(F)F)c23)CC[C@@H]1C(C)C` (single isomer, unassigned) [Example 63]: the half-inhibitory concentration (IC50) is above 1000 nM in experiment [1], above 100 nM at ITK, above 100 nM at JAK3 and above 1000 nM in experiment [2].

`C=CC(=O)N1C[C@H](Nc2ncnc3[nH]cc([C@H]4C(C)(C)C4(F)F)c23)CC[C@@H]1C` (single isomer, unassigned) [Example 53]: the IC50 in experiment [1] is 100 to 1000 nM; at ITK it was at most 10 nM; in experiment [2], at most 100 nM.

Consider `C=CC(=O)N1C[C@H](Nc2ncnc3[nH]cc(C4CCCC4)c23)CC[C@@H]1C` [Example 30, 1-((2S,5R)-5-((5-cyclopentyl-7H-pyrrolo[2,3-d]pyrimidin-4-yl)amino)-2-methylpiperidin-1-yl)prop-2-en-1-one], for which the 50% inhibitory concentration (IC50) in experiment [1] was at most 100 nM; at ITK, at most 10 nM; on JAK3 it was at most 10 nM; in experiment [2], at most 100 nM.

In the case of `C=CC(=O)N1C[C@H](Nc2ncnc3[nH]cc(C(=O)OCC)c23)CC[C@@H]1C` [Example 2, ethyl 4-(((3R,6S)-1-acryloyl-6-methylpiperidin-3-yl)amino)-7H-pyrrolo[2,3-d]pyrimidine-5-carboxylate], the IC50 in experiment [1] was 100 to 1000 nM; at ITK it was at most 10 nM; on JAK3, at most 10 nM; in experiment [2] it was 100 to 1000 nM.

For the molecule `C=CC(=O)N1CCC[C@@H](Nc2ncnc3[nH]cc(C(=O)[C@@H]4CCOC4)c23)C1` (single isomer, unassigned) [Example 12], the IC50 in experiment [1] was above 1000 nM; on ITK, at most 10 nM; on JAK3 it was 10 to 100 nM; in experiment [2], above 1000 nM.

`C=CC(=O)N1C[C@H](Nc2ccnc3[nH]cc([C@H]4C[C@@H]4COC)c23)CC[C@@H]1C` (single isomer, unassigned) [Example 76]: the IC50 in experiment [1] was above 1000 nM; on ITK, above 100 nM; at JAK3 it was 10 to 100 nM; in experiment [2], above 1000 nM.

With `C[C@H]1CC[C@@H](Nc2ncnc3[nH]cc(C4CC4(F)F)c23)CN1C(=O)/C=C/CN(C)C` (mixture of isomers) [Example 59, (E)-1-((2S,5R)-5-((5-(2,2-difluorocyclopropyl)-7H-pyrrolo[2,3-d]pyrimidin-4-yl)amino)-2-methylpiperidin-1-yl)-4-(dimethylamino)but-2-en-1-one], the IC50 is at most 100 nM in experiment [1], at most 10 nM at ITK and 10 to 100 nM on JAK3.

On to `C=CC(=O)N1CCC[C@@H](Nc2ncnc3[nH]cc([C@@]45CCC[C@@H]4C5(F)F)c23)C1` (single isomer, unassigned) [Example 79, 1-((R)-3-((5-((1R,5S)-6,6-difluorobicyclo[3.1.0]hexan-1-yl)-7H-pyrrolo[2,3-d]pyrimidin-4-yl)amino)piperidin-1-yl)prop-2-en-1-one], for which the IC50 at ITK was at most 10 nM.

For the molecule `C=CC(=O)N1C[C@H](Nc2ncnc3[nH]cc(C(=O)C(F)(F)F)c23)CC[C@@H]1C` [Example 33, 1-((2S,5R)-2-methyl-5-((5-(2,2,2-trifluoroacetyl)-7H-pyrrolo[2,3-d]pyrimidin-4-yl)amino)piperidin-1-yl)prop-2-en-1-one], the IC50 is 100 to 1000 nM in experiment [1], at most 10 nM at ITK and 10 to 100 nM at JAK3.

For the molecule `C=CC(=O)N1CCC[C@@H](Nc2ncnc3[nH]cc([C@@]45CCC[C@@H]4C5(F)F)c23)C1` (single isomer, unassigned) [Example 79], the values for the IC50 (in experiment [1]; on JAK3; in experiment [2]) were 100 to 1000 nM, at most 10 nM and 100 to 1000 nM, respectively.
